Several values for one entry are separate records, joined by “and”; a condition that tells them apart may be missing. Equal values may be shown once. Toxic doses and inconclusive results are not listed.
Tested on: BDF1 mice, P388 leukemia ip, median survival T/C
Test: NCI In Vivo Anticancer Drug Screen. Data for tumor model P388 Leukemia (intraperitoneal) in B6D2F1 (BDF1) mice
Settings: endpoint: median survival time, higher = longer survival
Method in brief: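 Transplantable tumour in mice; compound vs vehicle dosing; survival scored; ratio of treated to control reported.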

[1] = dose: 100.0 mg/kg/injection, schedule: Q01DX009 (ip), vehicle: saline with Tween-80
[2] = dose: 100.0 mg/kg/injection, schedule: Q04DX003 (ip), vehicle: saline with Tween-80
[3] = dose: 200.0 mg/kg/injection, schedule: Q01DX009 (ip), vehicle: saline with Tween-80
[4] = dose: 200.0 mg/kg/injection, schedule: Q04DX003 (ip), vehicle: saline with Tween-80
[5] = dose: 400.0 mg/kg/injection, schedule: Q01DX009 (ip), vehicle: saline with Tween-80
[6] = dose: 400.0 mg/kg/injection, schedule: Q04DX003 (ip), vehicle: saline with Tween-80
[7] = dose: 50.0 mg/kg/injection, schedule: Q01DX009 (ip), vehicle: saline with Tween-80
[8] = dose: 25.0 mg/kg/injection, schedule: Q01DX009 (ip), vehicle: saline with Tween-80

In the case of `C=CCOC(=O)C1c2ccccc2Cc2ccccc21`, the T/C [1] is reported as 110 % of control, the T/C [2] is reported as 100 % of control and the T/C [3] is reported as 115 % of control. For the same compound, the T/C [4] was 100 % of control, the T/C [5] was 110 % of control and the T/C [6] was 109 % of control.

For `O=C1c2ccccc2C2CCCC12` (stereo not given), the T/C [7] was 105 % of control, the T/C [1] was 120 % of control and the T/C [3] was 112 % of control.

For `COc1ccc(CCn2nnc3ccccc3c2=O)cc1OC`, the T/C [7] was 98 % of control, the T/C [1] was 99 % of control and the T/C [3] was 105 % of control.

With `C[n+]1c(/C=N/NC(N)=S)ccc2ccccc21` the T/C [8] was 97 % of control, the T/C [7] was 106 % of control and the T/C [1] was 113 % of control.

With `C[n+]1c(-c2ccccc2)c2ccccc2c2ccccc21` the T/C (dose: 0.75 mg/kg/injection, schedule: Q01DX009 (ip), vehicle: water) was 102 % of control, the T/C (dose: 1.5 mg/kg/injection, schedule: Q01DX009 (ip), vehicle: water) was 105 % of control and the T/C (dose: 1.5 mg/kg/injection, schedule: Q04DX003 (ip), vehicle: water) was 111 % of control. The T/C (dose: 3.0 mg/kg/injection, schedule: Q01DX009 (ip), vehicle: water) was 105 % of control, the T/C (dose: 3.0 mg/kg/injection, schedule: Q04DX003 (ip), vehicle: water) was 111 % of control and the T/C (dose: 6.0 mg/kg/injection, schedule: Q04DX003 (ip), vehicle: water) was 93 % of control.

`NC(CS/C(Cl)=C/Cl)C(=O)O` (stereo not given) was tested, and the T/C (dose: 1.5 mg/kg/injection, schedule: Q01DX009 (ip), vehicle: saline) was 95 % of control, the T/C (dose: 3.0 mg/kg/injection, schedule: Q01DX009 (ip), vehicle: saline) was 100 % of control and 109 % of control and the T/C (dose: 6.0 mg/kg/injection, schedule: Q01DX009 (ip), vehicle: saline) was 92 % of control and 95 % of control. The T/C (dose: 7.4 mg/kg/injection, schedule: Q01DX009 (ip), vehicle: saline) was 109 % of control, the T/C (dose: 11.0 mg/kg/injection, schedule: Q01DX009 (ip), vehicle: saline) was 113 % of control and the T/C (dose: 12.0 mg/kg/injection, schedule: Q01DX009 (ip), vehicle: saline) was 90 % of control. For the same compound, the T/C (dose: 16.0 mg/kg/injection, schedule: Q04DX003 (ip), vehicle: saline) was 120 % of control, the T/C (dose: 17.0 mg/kg/injection, schedule: Q01DX009 (ip), vehicle: saline) was 152 % of control and the T/C (dose: 25.0 mg/kg/injection, schedule: Q04DX003 (ip), vehicle: saline) was 120 % of control. For the same compound, the T/C (dose: 27.0 mg/kg/injection, schedule: Q01DX009 (ip), vehicle: saline) was 168 % of control and the T/C (dose: 35.0 mg/kg/injection, schedule: Q04DX003 (ip), vehicle: saline) was 104 % of control.

`CC1(c2ccco2)NC(=O)NC1=O` (stereo not given) was tested, and the T/C [1] was 105 % of control, the T/C [3] was 105 % of control and the T/C [5] was 105 % of control.

`NC(CCC(=O)NC(CSC(c1ccccc1)(c1ccccc1)c1ccc(F)cc1)C(=O)NCC(=O)O)C(=O)O` (stereo not given) was tested, and the T/C (dose: 115.0 mg/kg/injection, schedule: Q04DX003 (ip), vehicle: saline) was 118 % of control, the T/C (dose: 177.0 mg/kg/injection, schedule: Q04DX003 (ip), vehicle: saline with Tween-80) was 118 % of control and the T/C (dose: 266.0 mg/kg/injection, schedule: Q04DX003 (ip), vehicle: saline with Tween-80) was 159 % of control. The T/C (dose: 266.0 mg/kg/injection, schedule: Q04DX003 (ip), vehicle: saline) was 181 % of control and the T/C [6] was 231 % of control.

In the case of `O=S(=O)(O)CNc1ccccc1`, the T/C (dose: 100.0 mg/kg/injection, schedule: Q04DX003 (ip), vehicle: saline) is reported as 100 % of control, the T/C (dose: 200.0 mg/kg/injection, schedule: Q04DX003 (ip), vehicle: saline) is reported as 109 % of control and the T/C (dose: 400.0 mg/kg/injection, schedule: Q04DX003 (ip), vehicle: saline) is reported as 95 % of control.

For `CCCNC(=O)/C=C\S(=O)CCC` (stereo not given), the T/C [8] was 100 % of control, the T/C [7] was 98 % of control and the T/C [1] was 112 % of control.

With `C#CC(C)(C)OCC(CCl)OC(N)=O` (stereo not given) the T/C (dose: 50.0 mg/kg/injection, schedule: Q04DX003 (ip), vehicle: saline with Tween-80) was 105 % of control, the T/C [2] was 110 % of control and the T/C [4] was 100 % of control. The T/C [6] was 115 % of control.

Source: PubChem BioAssay AID328 (DTP/NCI, 2004)
